Measurements reported in patent US20150119267A1, “INHIBITION OF COLONY STIMULATING FACTOR-1 RECEPTOR SIGNALING FOR THE TREATMENT OF BRAIN CANCER” (SLOAN-KETTERING INSTITUTE FOR CANCER RESEARCH, priority 2012, published 2015).

Tests used:
[1] = tested on: U-87 MG glioma cell line; assay: MTT assay, U-87 MG; format: cell-based, human; details: concentrations up to 6700 nM
Procedure: U-87 MG (HTB-14) glioma and CRL-2467 microglia cell lines were purchased from ATCC. The U-87 MG cell line was cultured in DMEM+10% FBS. The CRL-2467 cell line was cultured in DMEM+10% FBS with 30 ng/ml recombinant mouse CSF-1.
(§1) Cell growth rate was determined using the MTT cell proliferation kit (Roche). […] Media was changed every 48 hours. BMDM and CRL-2467 cells were supplemented with 10 ng/ml and 30 ng/ml recombinant mouse CSF-1 respectively unless otherwise indicated. Ten μl of MTT labeling reagent was added to each well and then incubated for 4 hours at 37° C., followed by the addition of 100 μl MTT solubilization reagent overnight. The mixture was gently resuspended and absorbance was measured at 595 nm and 750 nm on a SPECTRAMAX 340 pc plate reader (Molecular Devices).

[2] = tested on: PDG tumor cell lines; assay: MTT assay, PDG tumor cell lines; format: cell-based, mouse; details: concentrations up to 6700 nM
Procedure: For neurosphere formation the cell pellet was resuspended in neurosphere media consisting of mouse NSC Basal Media, NSC proliferation supplements, 10 ng/ml EGF, 20 ng/ml basic-FGF and 1 mg/ml Heparin (Stem Cell Technologies). Fresh media was added every 72 hours for 2 weeks. Primary neurospheres were collected, mechanically disaggregated to a single cell suspension and propagated by serial passaging. To generate glioma cell lines, secondary neurospheres were dissociated to single cell suspensions and cultivated in DMEM+10% FBS as a monolayer (10). Multiple glioma cell lines were derived from independent mice, denoted GBM1-4 herein. Glioma cells were infected with a pBabe-H2B-mCherry construct as described previously (11).
as §1

[3] = tested on: Mrc1/CD206; assay: Mrc1/CD206 expression in BMDMs (flow cytometry, qRT-PCR); format: cell-based, mouse; details: in vitro, GCM
Procedure: (§2) Media that had been conditioned by glioma tumor cell lines grown in serum free media for 24 hours was passed through 0.22 μm filters to remove cellular debris, and is referred to herein as glioma cell-conditioned media (GCM). GCM was used to stimulate differentiated C57BL/6 WT or β-actin-GFP^+ BMDMs. Control macrophages received fresh media containing 10% FBS and 10 ng/ml recombinant mouse CSF-1.
For mouse primary glioma cultures (containing a mixed population of tumor cells, TAMs, astrocytes etc.; see FIG. 15), 1×10^6 cells were cultivated in DMEM+10% FBS in the presence of the CSF-1R inhibitor or DMSO as vehicle (n=6 independently isolated cultures). For BMDMs, 1×10^6 cells were cultivated in DMEM supplemented with recombinant mouse CSF-1 or GCM in the presence of the CSF-1R inhibitor or DMSO as vehicle. After 48 hours, cells were scraped and washed with FACS buffer. Cells were counted and incubated with 1 μl of Fc Block (BD Pharmingen) per 10^6 cells for at least 15 minutes at 4° C. Cells were then stained with CD45 and CD11b antibodies (Table 7) for 10 minutes at 4° C. and washed with FACS buffer. Cells were fixed and permeabilized using the BD Cytofix/Cytoperm™ kit (BD Biosciences) according to the manufacturer's instructions. Subsequently cells were stained with anti-CD206 antibody (Table 7). […]

[4] = tested on: glioma cells co-cultured with BMDMs; assay: Glioma cell / BMDM co-culture cell cycle analysis; format: cell-based, mouse; details: 670 nM BLZ945, 48 hours
Procedure: as §2
Following collection of trypsinized co-cultured cells, wells were rinsed in additional media and this volume was collected to ensure harvesting of all macrophages, which adhered tightly to cell culture dishes. Samples were then washed once with FACS buffer, followed by incubation for 10 minutes at room temperature in permeabilizing buffer (10 mM PIPES, 0.1 M NaCl, 2 mM MgCl2, 0.1% Triton X-100, pH 6.8) containing 0.1 mg DAPI (Invitrogen). After acquisition on an LSR II flow cytometer (BD) using a UV laser (350-360 nm), cell cycle status of glioma tumor cells was analyzed using the Flow Jo Dean-Jett-Fox program for cell cycle analysis.

[5] = tested on: established PDG gliomas; assay: Short-term 7 day trial on established tumors (MRI, histology); format: in vivo, mouse; details: for Apoptosis (% CC3+) / Macrophages (% CD68+) / Phagocytic Capacity / Proliferation (% BrdU+Olig2+) / Total DAPI+ Cells / Tumor Cells (% Olig2+) / Vasculature (CD31 MVD): relative to vehicle

SMILES: CNC(=O)c1cc(Oc2ccc3nc(N[C@@H]4CCCC[C@H]4O)sc3c2)ccn1 [BLZ945]
- U-87 MG human glioma cell proliferation [1]: no effect
- proliferation of PDG tumor cell lines [2]: no effect
- expression of Mrc1/CD206 in BMDMs [3]: downregulates
- increase in tumor cell cycle entry with GCM-preconditioned BMDMs [4]: blocked
- Apoptosis (% CC3+) ([5]; BLZ945, Day 3): +17-fold
- Macrophages (% CD68+) ([5]; BLZ945, Day 3): +3-fold
- Phagocytic Capacity ([5]; BLZ945, Day 3): +11.5-fold
- Proliferation (% BrdU+Olig2+) ([5]; BLZ945, Day 3): −91%
- Total DAPI+ Cells ([5]; BLZ945, Day 3): −72%
- Tumor Cells (% Olig2+) ([5]; BLZ945, Day 3): −27%
- Apoptosis (% CC3+) ([5]; BLZ945, Day 7): +6-fold
- Macrophages (% CD68+) ([5]; BLZ945, Day 7): +2-fold
- Phagocytic Capacity ([5]; BLZ945, Day 7): +5.0-fold
- Proliferation (% BrdU+Olig2+) ([5]; BLZ945, Day 7): −67%
- Total DAPI+ Cells ([5]; BLZ945, Day 7): −80%
- Tumor Cells (% Olig2+) ([5]; BLZ945, Day 7): −77%
- Vasculature (CD31 MVD) ([5]; BLZ945, Day 7): −17%
- Tumor Volume (Day −1 vs Day 6) ([5]; BLZ945, Day 7, start 4.5-40 mm3): +0.68%
- Apoptosis (% CC3+) ([5]; BLZ945 Large, Day 3): +9-fold
- Macrophages (% CD68+) ([5]; BLZ945 Large, Day 3): +2-fold
- Phagocytic Capacity ([5]; BLZ945 Large, Day 3): +7.1-fold
- Proliferation (% BrdU+Olig2+) ([5]; BLZ945 Large, Day 3): −98%
- Total DAPI+ Cells ([5]; BLZ945 Large, Day 3): −40%
- Tumor Cells (% Olig2+) ([5]; BLZ945 Large, Day 3): −14%
- Apoptosis (% CC3+) ([5]; BLZ945 Large, Day 7): +2-fold
- Macrophages (% CD68+) ([5]; BLZ945 Large, Day 7): +4-fold
- Phagocytic Capacity ([5]; BLZ945 Large, Day 7): +6.0-fold
- Proliferation (% BrdU+Olig2+) ([5]; BLZ945 Large, Day 7): −94%
- Total DAPI+ Cells ([5]; BLZ945 Large, Day 7): −65%
- Tumor Cells (% Olig2+) ([5]; BLZ945 Large, Day 7): −73%
- Vasculature (CD31 MVD) ([5]; BLZ945 Large, Day 7): −67%
- Tumor Volume (Day −1 vs Day 6) ([5]; BLZ945 Large, Day 7, start >40 mm3): −24.3%
- mice with >30% reduction in tumor volume (partial response, RECIST) ([5]; BLZ945 Large, tumors >40 mm3, 7 day trial): 6 of 18
- reduction of tumor cell proliferation ([5]; all groups and time points): 67-98%
- treated mice exhibiting a tumor response (histology) ([5]; already evident at d3): 100%
- average blood vessel length ([5]; both treatment groups compared to vehicle): decreased
- average density of Olig2+ tumor cells, of total cells ([5]; by d7, both CSF-1R inhibitor groups): < 20%
- TAM numbers in tumors ([5]; compared to vehicle): did not affect TAM numbers
- increase in apoptosis ([5]; d3): 9-to 17 fold
- Iba1+ macrophages that are CSF-1R+ within the tumor ([5]; d7): no significant differences
- immune cell infiltration, comparisons between treatment groups ([5]; day 7, flow cytometry): not significant
- microglia in adjacent normal brain ([5]; mouse, in vivo): evident microglia depletion
- pericyte coverage of the vessels ([5]; mouse, in vivo): no significant differences
- tumor growth (MRI tumor volume) ([5]; starting tumor volume 4.5-40 mm3, 7 day trial): significantly halted tumor growth
- increase in Olig2+CC3+ cells engulfed by CD11b+ macrophages ([5]; treated groups): 2 to 4 fold
- increased phagocytic capacity of macrophages ([5]; treated groups): 5 to 11.5 fold
